Data on 1 compound can be found in US20220054494A1, “METHODS FOR TREATING BLADDER AND URETHRA DYSFUNCTION AND DISEASE” (University of Pittsburgh - Of the Commonwealth System of …, priority 2019, published 2022).

What all share (type): in vivo, rat
The test system of one series is parkin. Nature of the series: Western immunoblotting, parkin. The settings on record: aged rats; oral 8-AG 5 mg/kg/day, 6 weeks. As to the method:
Western immunoblotting: One half of each bladder preparation was homogenized using Lysing Matrix D in a FastPrep 24 instrument (MP Biomedicals, Solon, Ohio) in HBSS (5 mM KCl, 0.3 mM KH2PO4, 138 mM NaCl, 4 mM NaHO3, 0.3 mM Na2HCO3, 0.3 mM Na2HPO4, 5.6 mM glucose and 10 mM Hepes, pH 7.4) containing complete protease inhibitor cocktail (1 tablet/10 ml, ROCHE®, Indianapolis, Ind.)) and phosphatase inhibitor cocktail (SIGMA®, 1:100). After centrifugation (13000 rpm; 15 min at 4° C.), the membrane protein fraction was prepared by suspending the membrane pellets in lysis buffer containing 0.3 M NaCl, 50 mM Tris-HCl (pH 7.6) and 0.5% Triton X-100 and the same concentration of protease inhibitors as above. The suspensions were incubated on ice and centrifuged (13000 rpm; 15 min at 4° C.). The protein concentrations of the combined supernatants were determined using the PIERCE® BCA protein assay (THERMO SCIENTIFIC®, Rockford, Ill.). […] As a loading control, total protein per sample was determined using Bio-Rad® Stain Free SDS-PAGE gel technology. UV-activated protein fluorescence was imaged on a CHEMIDOC® MP (BIO-RAD®). […] The volume (intensity) of each protein species was determined and normalized to total protein using Image Lab software (BIO-RAD®).
(In general: A western blot detects proteins with antibodies after separation by electrophoresis.)

The test system of another series is purines in urine. The series is described as follows: Purines in urine by mass spectrometry. The settings on record: aged rats, oral 8-AG 5 mg/kg/day, 6 weeks. The protocol:
Protocol 2: Purines in urine were measured by mass spectrometry using selected reaction monitoring. Urine samples were diluted 1 to 30 with water, and heavy isotope internal standards were added to each sample. Purines were separated by reversed-phase ultra-performance liquid chromatography (Waters UPLC BEH C18 column, 1.7 μm beads; 2.1×150 mm; Milford, Mass.) and quantified by selected reaction monitoring using a triple quadrupole mass spectrometer (TSQ Quantum-Ultra; THERMOFISHER SCIENTIFIC®, San Jose, Calif.) with a heated electrospray ionization source. The mobile phase was a linear gradient flow rate (300 μL/min) of 1% acetic acid in water (pH, 3; mobile phase A) and 100% methanol (mobile phase B) and was delivered with a Waters Acquity ultra-performance liquid chromatographic system. The gradient (A/B) settings were as follows: from 0 to 2 minutes, 99.6%/0.4%; from 2 to 3 minutes, to 98.0%/2.0%; from 3 to 4 minutes, to 85.0%/15.0%; and from 4 to 6.5 minutes, to 99.6%/0.4%. The instrument parameters were: sample tray temperature, 10° C.; column temperature, 50° C.; ion spray voltage, 4.0 kilovolts; ion transfer tube temperature, 350° C.; source vaporization temperature, 320° C.; Q2 CID gas, argon at 1.5 mTorr; sheath gas, nitrogen at 60 psi; auxillary gas, nitrogen at 35 psi; Q1/Q3 width, 0.7/0.7 units full-width half-maximum; scan width, 0.6 units; scan time, 0.01 seconds. […]
Purine Metabolome Measurement: Purines in urine were measured by mass spectrometry using selected reaction monitoring.(7,13) Urine samples were diluted 1 to 30 with water, and heavy isotope internal standards were added to each sample. Purines were separated by reversed-phase ultra-performance liquid chromatography (Waters UPLC BEH C18 column, 1.7 μm beads; 2.1×150 mm; Milford, Mass.) and quantified by selected reaction monitoring using a triple quadrupole mass spectrometer (TSQ Quantum-Ultra; THERMOFISHER SCIENTIFIC®, San Jose, Calif.) with a heated electrospray ionization source. […]

The subject of a further series is aged rats. Nature of the series: Voiding analysis in metabolic cages, aged rats.

Each structure is given as a SMILES string. “Also recorded” adds a separate entry of the source.

As for `Nc1nc2[nH]c(N)nc2c(=O)[nH]1` [8-AG, 8-Aminoguanine], in the series on parkin, the “parkin in bladder mucosa” value is reported as “reversed or restored to levels similar to the younger state; also recorded: restored changes similar to a younger state”. Further, the urinary hypoxanthine levels result in the series on purines in urine is listed as “significantly reduced; also recorded: levels comparable to younger rats; also recorded: normalizes; also recorded: restored to younger levels”. Moreover, in the series on purines in urine (compared with young rats), the urinary guanosine levels result is listed as “similar; also recorded: recovered”. In addition, the “urinary levels of 8-AG” value in the series on purines in urine (undetectable in untreated aged rats) is listed as “restored to younger levels”. The intercontraction interval entry in the series with aged rats (aged Fischer 344 rats, oral 8-AG 5 mg/kg/day, 6 weeks) was “attenuates”; in the series with aged rats (aged Fisher 344 rats, 8-AG 5 mg kg/day via drinking water, 1 month), “attenuates”.
